“And” between values parts separate entries of the source, which are not always exact repeats. Identical values can stand only once.
Assays:
[1] = tested on: E. coli ATCC 25922; test: Broth microdilution assay, E. coli; format: cell-based, Escherichia coli; conditions: 50 µM, 24 h, inhibition of growth, mean ± SD
Procedure: (§1) Clinically used antimicrobial agents were selected based on international guidelines for antimicrobial testing and were utilised as reference compounds in the antimicrobial assays. The compounds were purchased from Sigma, Fluka and ICN Biomedicals. Stock solutions of the reference compounds were prepared either in double distilled sterile MilliQ water or in DMSO. Water solutions were sterilised through a 0.22 µm filter (VWR International). […] During the primary screening, these reference compounds were used as positive controls at the determined MIC on every plate.
(§2) Gram-negative strains Escherichia coli (ATCC 25922), Enterobacter aerogenes (ATCC 13048) and Pseudomonas aeruginosa (ATCC 27853), Gram-positive strains Staphylococcus aureus (ATCC 25923) and Enterococcus faecalis (ATCC 29212), and fungal strain Candida albicans (ATCC 90028) were obtained from Microbiologics Inc., and used for the antimicrobial screening. Strains were selected according to the guidelines set for clinical laboratories by Clinical and Laboratory Standards Institute [CLSI, formerly National Committee on Clinical Laboratory Standards [22]] and the European Committee on Antimicrobial Susceptibility Testing (EUCAST). Bacterial strains were grown on Mueller Hinton II Agar (MHA) (BBL, BD) and Mueller Hinton II broth (MHB) (BBL, BD), whereas Candida was initiated on Sabouraud Dextrose Agar (SDA) (Difco, BD) plates. Media were prepared into MilliQ water according to manufacturer’s instruction and autoclaved at 121°C for 15 min. Bacteria were plated on MHA plates and incubated at 37°C for 16–18 h. Bacterial suspension for the assays was prepared by subculturing the bacteria into MHB and by incubating at 37°C for 16–20 h at 110 rpm prior to the assay. Candida strain was grown on SDA plates at 27°C for 16–18 h and suspended into sterile 0.9% saline for the assay.
(§3) Antimicrobial screening assays were performed by broth microdilution method following the guidelines of CLSI and EUCAST. Bacterial suspensions were prepared as mentioned earlier and diluted with MHB to obtain a final inoculum of 5×10^5 colony-forming units (cfu)/mL in the assay for all the bacteria (based on OD620 values previously calibrated against plate counts). Candida suspension was prepared into sterile 0.9% saline solution as stated earlier. […] Assays were carried out in clear 96-well microtitre plates and initiated by dispensing an equal volume of microbial suspension and sample solution diluted into the assay medium into the wells. The plates were incubated for 24 h at 37°C (for Candida the incubation was at 35°C for 48 h) with agitation. Absorbance was measured at 620 nm with Victor plate reader (Wallac 1420, Perkin Elmer) at 0, 4 and 24 h with the bacteria, and at 0, 24 and 48 h with Candida. The antimicrobial activity of the samples was calculated from the absorbance values by comparing to the controls, and expressed as a percentage inhibition of growth. All the betulin derivatives were first assayed at the single concentration of 50 µM (two separate experiments, each with three replicates). […] The MIC90 value was expressed as the lowest concentration of compound that inhibited the microbial growth by >90%. The MIC90 results are means of three replicates from two separate experiments.

[2] = tested on: C. albicans ATCC 90028; test: Broth microdilution assay, C. albicans; format: cell-based, Candida albicans; conditions: 50 µM, 48 h at 35°C, inhibition of growth, mean ± SD
Procedure: as §1, §2, §3

[3] = tested on: Huh-7 cells; test: in vitro; format: cell-based, human; conditions: 50 µM, 24 h exposure, ATP content, 5% FBS
Procedure: Huh-7 cells (derived from human hepatocellular carcinoma) were obtained as a gift from Prof. Ralf Bartenschlager (University of Heidelberg, Germany) and used for assessing the cytotoxicity against mammalian cells. HL cells (a heteroploid cell line used for propagating respiratory viruses) were used as a host cell line in the host-pathogen co-culture assay. […] Both cell lines were cultured at 37°C, 5% CO2 and 95% humidity.
The effect of the betulin derivatives on metabolic activity of Huh-7 cells was evaluated by measuring the intracellular ATP content of the cells after 24 h exposure to the compounds. In brief, cells were seeded at 20000 cells/well on white-walled microplates (PerkinElmer) and incubated at 37°C, 5% CO2 and 95% humidity. After culturing the cells overnight, the medium was replaced with the assay media (5% FBS) containing the sample and the cells were incubated for 24 h. Polymyxin B sulphate (15000 IU/mL) was used as a positive control. Following the incubation period, Promega’s CellTiter-Glo Cell Viability Assay was used to determine the intracellular ATP levels according to the manufacturer’s instructions. Cells were washed with 100 µL 6.7 mM PBS, pH 7.4 and 50 µL of fresh assay media and 50 µL of the CellTiter-Glo reagent were added into the wells. After 2 min shaking, followed by 10 min incubation at RT, luminometric signal was measured using Varioskan Flash plate reader (Thermo Fisher Scientific).

[4] = tested on: P. aeruginosa ATCC 27853; test: Broth microdilution assay, P. aeruginosa; format: cell-based, Pseudomonas aeruginosa; conditions: 50 µM, 24 h, inhibition of growth, mean ± SD
Procedure: as §1, §2, §3

[5] = tested on: E. aerogenes ATCC 13048; test: Broth microdilution assay, E. aerogenes; format: cell-based, Enterobacter aerogenes; conditions: 50 µM, 24 h, inhibition of growth, mean ± SD
Procedure: as §1, §2, §3

[6] = tested on: S. aureus ATCC 25923; test: Broth microdilution assay, S. aureus; format: cell-based, Staphylococcus aureus; conditions: 50 µM, 24 h, inhibition of growth, mean ± SD
Procedure: as §1, §2, §3

[7] = tested on: E. faecalis ATCC 29212; test: Broth microdilution assay, E. faecalis; format: cell-based, Enterococcus faecalis; conditions: 50 µM, 24 h, inhibition of growth, mean ± SD
Procedure: as §1, §2, §3

SMILES	Inhibitory effect (%) E. coli ATCC 25922 [1] [%]	Inhibitory effect (%) C. albicans ATCC 90028 [2] [%]	Cytotoxicity (%) Huh-7 cells [3] [%]	Inhibitory effect (%) P. aeruginosa ATCC 27853 [4] [%]	Inhibitory effect (%) E. aerogenes ATCC 13048 [5] [%]	Inhibitory effect (%) S. aureus ATCC 25923 [6] [%]	Inhibitory effect (%) E. faecalis ATCC 29212 [7]
C=C(C)[C@@H]1CC[C@]2(COC(=O)C3C(C=C(C)C)C3(C)C)CC[C@]3(C)[C@H](CC[C@@H]4[C@@]5(C)CC[C@H](O)C(C)(C)[C@@H]5CC[C@]43C)[C@@H]12 (some centres unmarked) [Compound 3, 28-O-chrysanthemoylbetulin]	0.3±1.7	35.4±3.8	-5.8±2.5	4.4±1.4	10.6±0.5	-23.2±11	46.9±6.0%
CC(C)C12CCC3(CO)CCC4(C)C(=C31)C(CC1C3(C)CCC(O)C(C)(C)C3CCC14C)n1c(=O)n(-c3ccccc3)c(=O)n12 (centres unmarked) [Compound 44]	-1.0±0.3	-25.4±8.0	2.8±5.3	3.3±1.1	11.7±1.1	5.7±2.2	57.1±7.1%
CCC(=O)OCC12CCC3(C(C)C)C1=C1C(CC4C5(C)CCC(OC(=O)CC)C(C)(C)C5CCC4(C)C1(C)CC2)n1c(=O)n(C)c(=O)n13 (centres unmarked) [Compound 45]	-4.3±7.0	-30.7±19.4	11.1±5.1	3.7±1.2	10.8±6.9	0.7±3.8	41.6±2.8%
CC(C)C12CCC3(COC(=O)C4CCCCC4)CCC4(C)C(=C31)C(CC1C3(C)CCC(OC(=O)C5CCCCC5)C(C)(C)C3CCC14C)n1c(=O)n(C)c(=O)n12 (centres unmarked) [Compound 48]	-5.5±1.9	-39.6±25.9	-10.8±1.9	7.1±1.7	12.1±2.2	5.0±4.2	56.3±1.8%
C=C(C)C1CCC2(C(=O)NC(CC(=O)O)C(=O)O)CCC3(C)C(CCC4C5(C)CCC(=O)C(C)(C)C5CCC43C)C12 [Compound 27, L-aspartyl amide of betulonic acid]	3.1±4.6	44.2±3.8	10.9±1.3	-1.2±0.4	9.3±1.0	12.7±3.3	38.2±15.5%
COc1cccc(-n2c(=O)n3n(c2=O)C2(C(C)C)CCC4(COC(C)=O)CCC5(C)C(=C42)C3CC2C3(C)CCC(OC(C)=O)C(C)(C)C3CCC25C)c1 (centres unmarked) [Compound 34]	1.7±4.2	-1.1±3.5	8.5±2.0	0.6±2.5	13.8±4.3	3.1±2.0	68.4±3.0%
C=C(C)[C@@H]1CC[C@]2(C=NO)CC[C@]3(C)[C@H](CC[C@@H]4[C@@]5(C)CCC(=NO)C(C)(C)[C@@H]5CC[C@]43C)[C@@H]12 [Compound 30]	7.9±6.1	13.9±8.8	42.4±5.4	1.4±1.1	18.5±3.4	5.1±6.0	57% and 56.9±2.6%
C=C(C)[C@@H]1CC[C@]2(COC(C)=O)CC[C@]3(C)[C@H](CC[C@@H]4[C@@]5(C)CC[C@H](O)C(C)(C)[C@@H]5CC[C@]43C)[C@@H]12 [Compound 9]	-0.2±7.1	3.0±10.1	5.1±1.0	-0.6±3.3	9.1±2.1	5.1±6.9	50.9±2.1%
CC(C)C12CCC3(COC(=O)c4ccccc4)CCC4(C)C(=C31)C(CC1C3(C)CCC(OC(=O)c5ccccc5)C(C)(C)C3CCC14C)n1c(=O)n(C)c(=O)n12 (centres unmarked) [Compound 49]	0.0±6.0	-48.0±24.5	-10.6±4.1	5.3±1.9	14.2±1.5	15.1±1.0	64.6±0.8%
CC(=O)OCC12CCC3(C(C)C)C1=C1C(CC4C5(C)CCC(OC(C)=O)C(C)(C)C5CCC4(C)C1(C)CC2)n1c(=O)n(-c2ccccc2)c(=O)n13 (centres unmarked) [Compound 41]	7.1±1.0	15.0±14.3	1.3±4.4	1.3±0.4	18.6±5.6	12.7±1.6	52.4±7.2%
CC(C)C(=O)OCC12CCC3(C(C)C)C1=C1C(CC4C5(C)CCC(OC(=O)C(C)C)C(C)(C)C5CCC4(C)C1(C)CC2)n1c(=O)n(C)c(=O)n13 (centres unmarked) [Compound 47]	-3.8±4.2	12.0±12.7	-4.9±2.2	1.4±0.8	9.6±1.7	2.9±1.0	47.8±1.3%
